Measured values taken from patent publication US20120172302A1, “COMPOSITION FOR THE TREATMENT OF BENIGN PROSTATE HYPERPLASIA” (priority 2009, published 2012).
Square brackets hold non-standard residues; d marks the D form. Peptide text beside a SMILES is read from it. * marks the point of attachment. dPhe(4-NHCONH2) = NC(=O)Nc1ccc(C[C@@H](N)C(=O)O)cc1; Dihydroorotyl(S) = O=C1C[C@@H](C(=O)*)NC(=O)N1; dPhe(4-Cl) = N[C@H](Cc1ccc(Cl)cc1)C(=O)O; Phe(4-NH2) = Nc1ccc(C[C@H](N)C(=O)O)cc1; d2Nal = N[C@H](Cc1ccc2ccccc2c1)C(=O)O; Lys(iPr) = CC(C)NCCCC[C@H](N)C(=O)O; d3Pal = N[C@H](Cc1cccnc1)C(=O)O

Key:
patients with BPH [1] = experiment: International Prostate Symptom Score (IPSS) questionnaire, clinical trial in BPH patients; type: in vivo, men; conditions: for Improvements in mean sum of IPSS scores: 9 and 12 months follow-up
Procedure: For each patient, the following parameters were measured or assessed (using the methods discussed below), at time points of screening (e.g. −7 days) day 0 (“baseline”), day 14, day 28 and day 42:
(§1) After the initial 6-week treatment period of the exploratory study had been completed, a 12-month follow-up period looking at long-term efficacy commenced. Interim data of the main efficacy variables (IPSS, IPSS Global QoL, prostate volume, urinary flow, and post-void residual volume—measured as set out below) after 6 months' follow-up are also presented herein Table 1, 2, 3 FIG. 1b), together with some IPSS data at 9 and 12 months (FIG. 1b).
The IPSS was developed in 1991 by the American Urological Association to assess the severity of urinary symptoms related to BPH (Barry, M. J., et al., The American Urological Association symptom index for benign prostatic hyperplasia. The Measurement Committee of the American Urological Association. J Urol, 1992. 148(5): p. 1549-57; discussion 1564). It has been widely used in clinical studies, has undergone extensive validation and its psychometric properties are well documented in both the original version (containing a 1-month recall) as well as the ‘acute’ version used in this study (containing a one-week recall). The WHO has recommended the use of this instrument for the evaluation of BPH and it is considered to be the internationally accepted, standard questionnaire for assessing lower urinary tract symptoms.
The patients were asked to complete the IPSS questionnaire to evaluate their urinary symptoms. The IPSS is a patient-administered questionnaire containing seven items to evaluate symptoms of urinary obstruction (incomplete emptying, frequency, hesitancy, urgency, weak stream, straining, nocturia) over the preceding week. Each urinary symptom question is assigned points from 0 to 5 indicating increasing severity of the particular symptom. The total score can therefore range from 0 to 35 (0-7: mildly symptomatic; 8-19: moderately symptomatic; 20-35: severely symptomatic). A reduction in score over the treatment is indicative of improvement.

patients with BPH [2] = experiment: Prostate volume by transrectal ultrasound, clinical trial; type: in vivo, men
Description: 2] Efficacy Endpoints—the measured Peak Urinary Flow, Post-void Residual Volume, and Prostate Volume.
as §1
The prostate volume was measured by transrectal ultrasound with the patient in lateral position. The prostatic gland was sonicated from two directions perpendicular to one another resulting in three cursor positions set by the urologist. The volume was calculated automatically. The investigations were performed by urologists by methods known in the art.

[3] = Day 42, all treatment groups combined
[4] = Month 6 follow up, 32 mg group, n=7
[5] = Month 6 follow up, 64 mg group, n=4
[6] = Month 6 follow up, 16+16 mg group, n=6
[7] = Month 6 follow up, 32+32 mg group, n=7
[8] = baseline, all treatment groups combined
[9] = Month 6 follow-up, 32 mg group, n=7
[10] = Month 6 follow-up, 64 mg group, n=4
[11] = Month 6 follow-up, 16+16 mg group, n=6
[12] = Month 6 follow-up, 32+32 mg group, n=7

CC(=O)N[C@H](Cc1ccc2ccccc2c1)C(=O)N[C@H](Cc1ccc(Cl)cc1)C(=O)N[C@H](Cc1cccnc1)C(=O)N[C@@H](CO)C(=O)N[C@@H](Cc1ccc(NC(=O)[C@@H]2CC(=O)NC(=O)N2)cc1)C(=O)N[C@H](Cc1ccc(NC(N)=O)cc1)C(=O)N[C@@H](CC(C)C)C(=O)N[C@@H](CCCCNC(C)C)C(=O)N1CCC[C@H]1C(=O)N[C@H](C)C(N)=O [Degarelix, D-Alaninamide, N-acetyl-3-(2-naphthalenyl)-D-alanyl-4-chloro-D-phenylalanyl-3-(3-pyridinyl)-D-alanyl-L-seryl-4-[[[(4S)-hexahydro-2,6-dioxo-4-pyrimidinyl]carbonyl]amino]-L-phenylalanyl-4-[(aminocarbonyl)amino]-D-phenylalanyl-L leucyl-N6-(1-methylethyl)-L-lysyl-L-prolyl] (Ac-[d2Nal][dPhe(4-Cl)][d3Pal]S[Phe(4-NH2)](Dihydroorotyl(S))[dPhe(4-NHCONH2)]L[Lys(iPr)]P[dA]-NH2)
IPSS Q1 (incomplete emptying), Q2 (frequency), Q4 (urgency) score, change from baseline (patients with BPH [1]; 32 mg dose, 28 and 42 day timepoints (FIG. 1c)): pronounced effect
Improvements in mean sum of IPSS scores (patients with BPH [1]; 32 mg group (FIG. 1b)): still indicated
Improvements in mean sum of IPSS scores (patients with BPH [1]; 32+32 mg group (FIG. 1b)): still indicated
Mean IPSS score (patients with BPH [1]; Baseline of 6 month follow up patients, 32 mg group, n=7): 22.0 (n = 7)
Mean IPSS score (patients with BPH [1]; Baseline of 6 month follow up patients, 64 mg group, n=4): 20.0 (n = 4)
Mean IPSS score (patients with BPH [1]; Baseline of 6 month follow up patients, 16+16 mg group, n=6): 18.8 (n = 6)
Mean IPSS score (patients with BPH [1]; Baseline of 6 month follow up patients, 32+32 mg group, n=7): 19.3 (n = 7)
Mean IPSS score (patients with BPH [1]; Baseline, 32 mg group (one s.c. injection Day 0), N=12): 22.3 (6.5)
Mean IPSS score (patients with BPH [1]; Baseline, 64 mg group (one s.c. injection Day 0), N=13): 21.8 (6.2)
Mean IPSS score (patients with BPH [1]; Baseline, 16+16 mg group (16 mg s.c. Day 0 and Day 14), N=13): 17.7 (4.5)
Mean IPSS score (patients with BPH [1]; Baseline, 32+32 mg group (32 mg s.c. Day 0 and Day 14), N=12): 18.2 (5.4)
IPSS mean change from baseline (patients with BPH [1]; Day 14, 32 mg group): −7.8 (8.7)
IPSS mean change from baseline (patients with BPH [1]; Day 14, 64 mg group): −8.0 (4.0)
IPSS mean change from baseline (patients with BPH [1]; Day 14, 16+16 mg group): −3.2 (5.4)
IPSS mean change from baseline (patients with BPH [1]; Day 14, 32+32 mg group): −5.5 (5.0)
IPSS mean change from baseline (patients with BPH [1]; Day 42, 32 mg group): −13.2 (6.6)
Mean IPSS score (patients with BPH [1]; Day 42, 32 mg group): 9.1 (6.2)
Number of patients in IPSS category "severe" (patients with BPH [1]; Day 42, 32 mg group): 1 patients
Percentage responders (decrease in IPSS of at least 30% vs baseline) (patients with BPH [1]; Day 42, 32 mg group): 92%
IPSS mean change from baseline (patients with BPH [1]; Day 42, 64 mg group): −10.0 (5.0)
Mean IPSS score (patients with BPH [1]; Day 42, 64 mg group): 11.8 (5.9)
Number of patients in IPSS category "severe" (patients with BPH [1]; Day 42, 64 mg group): 1 patients
Percentage responders (decrease in IPSS of at least 30% vs baseline) (patients with BPH [1]; Day 42, 64 mg group): 85%
IPSS mean change from baseline (patients with BPH [1]; Day 42, 64 mg group, listed as degarelix): −10.0 (SD=5.0)
IPSS mean change from baseline (patients with BPH [1]; Day 42, 16+16 mg group): −6.1 (4.6)
Mean IPSS score (patients with BPH [1]; Day 42, 16+16 mg group): 11.6 (4.5)
Percentage responders (decrease in IPSS of at least 30% vs baseline) (patients with BPH [1]; Day 42, 16+16 mg group): 54%
IPSS mean change from baseline (patients with BPH [1]; Day 42, 16+16 mg group, listed as degarelix): −6.1 (SD=4.6)
IPSS mean change from baseline (patients with BPH [1]; Day 42, 32+32 mg group): −9.6 (4.7)
Mean IPSS score (patients with BPH [1]; Day 42, 32+32 mg group): 8.6 (5.7)
Percentage responders (decrease in IPSS of at least 30% vs baseline) (patients with BPH [1]; Day 42, 32+32 mg group): 83%
IPSS mean change from baseline (patients with BPH [1]; Day 42, 32+32 mg group, listed as degarelix): −9.6 (SD=4.7)
Number of patients in IPSS category "mild" (patients with BPH [1]; [3]): 17 patients
Number of patients in IPSS category "moderate" (patients with BPH [1]; [3]): 31 patients
Number of patients in IPSS category "severe" (patients with BPH [1]; [3]): 2 patients
IPSS mean change from baseline (patients with BPH [1]; [4]): −11.6 (8.3)
Mean IPSS score (patients with BPH [1]; [4]): 10.4 (6.3)
Percentage responders (decrease in IPSS of at least 30% vs baseline) (patients with BPH [1]; [4]): 86%
IPSS mean change from baseline (patients with BPH [1]; [5]): −4.0 (3.6)
Mean IPSS score (patients with BPH [1]; [5]): 16.0 (8.7)
Percentage responders (decrease in IPSS of at least 30% vs baseline) (patients with BPH [1]; [5]): 5%
IPSS mean change from baseline (patients with BPH [1]; [6]): −2.5 (4.3)
Mean IPSS score (patients with BPH [1]; [6]): 16.3 (4.7)
Percentage responders (decrease in IPSS of at least 30% vs baseline) (patients with BPH [1]; [6]): 33%
IPSS mean change from baseline (patients with BPH [1]; [7]): −12.6 (9.6)
Mean IPSS score (patients with BPH [1]; [7]): 6.7 (4.5)
Percentage responders (decrease in IPSS of at least 30% vs baseline) (patients with BPH [1]; [7]): 86%
Number of patients in IPSS category "moderate" (patients with BPH [1]; [8]): 27 patients
Number of patients in IPSS category "severe" (patients with BPH [1]; [8]): 23 patients
Mean (SD) Prostate Volume (patients with BPH [2]; Baseline of 6-month follow-up patients, 32 mg group, n=7): 45.9 (n = 7) mL
Mean (SD) Prostate Volume (patients with BPH [2]; Baseline of 6-month follow-up patients, 64 mg group, n=4): 38.7 (n = 4) mL
Mean (SD) Prostate Volume (patients with BPH [2]; Baseline of 6-month follow-up patients, 16+16 mg group, n=6): 40.8 (n = 6) mL
Mean (SD) Prostate Volume (patients with BPH [2]; Baseline of 6-month follow-up patients, 32+32 mg group, n=7): 37.1 (n = 7) mL
Mean (SD) Prostate Volume (patients with BPH [2]; Baseline, 32 mg group, N=12): 48.7 (21.0) mL
Mean (SD) Prostate Volume (patients with BPH [2]; Baseline, 64 mg group, N=13): 38.9 (9.0) mL
Mean (SD) Prostate Volume (patients with BPH [2]; Baseline, 16+16 mg group, N=13): 42.0 (12.1) mL
Mean (SD) Prostate Volume (patients with BPH [2]; Baseline, 32+32 mg group, N=12): 38.1 (7.1) mL
Prostate Volume Change from Baseline (patients with BPH [2]; Day 42, 32 mg group): −13.9 (14.7) mL
Prostate Volume Percentage Change from Baseline (patients with BPH [2]; Day 42, 32 mg group): −25.1 (18.0) %
Prostate Volume Change from Baseline (patients with BPH [2]; Day 42, 64 mg group): −8.2 (10.2) mL
Prostate Volume Percentage Change from Baseline (patients with BPH [2]; Day 42, 64 mg group): −19.7 (23.2) %
Prostate Volume Change from Baseline (patients with BPH [2]; Day 42, 16+16 mg group): −7.5 (7.7) mL
Prostate Volume Percentage Change from Baseline (patients with BPH [2]; Day 42, 16+16 mg group): −17.0 (16.7) %
Prostate Volume Change from Baseline (patients with BPH [2]; Day 42, 32+32 mg group): −9.4 (9.3) mL
Prostate Volume Percentage Change from Baseline (patients with BPH [2]; Day 42, 32+32 mg group): −23.5 (20.9) %
Prostate Volume Change from Baseline (patients with BPH [2]; [9]): −11.6 (5.1) mL
Prostate Volume Percentage Change from Baseline (patients with BPH [2]; [9]): −25.6 (8.0) %
Prostate Volume Change from Baseline (patients with BPH [2]; [10]): −9.7 (10.4) mL
Prostate Volume Percentage Change from Baseline (patients with BPH [2]; [10]): −21.5 (20.6) %
Prostate Volume Change from Baseline (patients with BPH [2]; [11]): −11.2 (4.4) mL
Prostate Volume Percentage Change from Baseline (patients with BPH [2]; [11]): −27.8 (8.7) %
Prostate Volume Change from Baseline (patients with BPH [2]; [12]): −10.6 (8.8) mL
Prostate Volume Percentage Change from Baseline (patients with BPH [2]; [12]): −27.1 (17.3) %
